Experimental data reported in publication PMC6556873, “Rapid Covalent-Probe Discovery by Electrophile-Fragment Screening” (Journal of the American Chemical Society, 2019).
Read-outs that look alike come from different tables or passages of the source.

Columns and labels:
[1] = in vitro; set-up: species or system HB2, CCD841; details: human, hek293 cells
[2] = target: T1, BSA (Bos taurus, UniProt P02769); set-up: Intact protein LC/MS covalent labelling, fragments in pools of five, 200 uM each, 4 °C; details: 24 h, 4 °C, pool of five; 200 µM; covalent
T1 construct: gene ALB
Method: (§1) Incubations were performed at 200 μM for each compound and 2 μM of protein (10 μM for BSA) for 24 h at 4 °C with moderate shaking. Incubation buffers varied among proteins (PBS pH 7.4 for QSOX1 and BSA; 10 mM HEPES pH 7.5, 0.3 M NaCl, 0.5 mM TCEP for PCAF, UPS8, and NUDT7; […]; 10 mM Na2HPO4 pH 7.5 100 mM NaCl 5 mM β-mercaptoethanol for NV3CP; 20 mM Na phosphate pH 7.5 for NNMT; […]. The reaction was stopped by quenching with formic acid, 0.4% final concentration. Each protein was incubated with the electrophilic library in pools of five compounds per well. The pool’s composition maximized the difference in mass between fragments in the same well. Incubations were performed with each fragment at 200 μM, for 24 h at 4 °C, to allow the screening of proteins that are not stable for long time periods at higher temperatures. Following incubation, we used intact protein [compound left out] chromatography/mass spectrometry (LC/MS) to identify the fragments and quantify their labeling (Figure 3A). […] There was good agreement between the percent of labeling of NUDT7 by 100 random individual compounds and that obtained in pools of five (R^2=0.78; Figure S6 and Data set 2 in the Supporting Information).

[3] = target: T2, PCAF (Homo sapiens, UniProt Q92831); set-up: Intact protein LC/MS covalent labelling, fragments in pools of five, 200 uM each, 4 °C; details: 24 h, 4 °C, pool of five; 200 µM; covalent
T2 construct: gene KAT2B
Method: as §1

[4] = target: T3, OTUB2 (OTUB2A) (Homo sapiens, UniProt Q96DC9); set-up: Intact protein LC/MS covalent labelling, fragments in pools of five, 200 uM each, 4 °C; details: 24 h, 4 °C, pool of five; 200 µM; covalent
T3 construct: full length residues 1-234, E. coli BL21(DE3)-R3, His tag removed by TEV, construct 27312 Da
T3 sequence (Q96DC9 1-234): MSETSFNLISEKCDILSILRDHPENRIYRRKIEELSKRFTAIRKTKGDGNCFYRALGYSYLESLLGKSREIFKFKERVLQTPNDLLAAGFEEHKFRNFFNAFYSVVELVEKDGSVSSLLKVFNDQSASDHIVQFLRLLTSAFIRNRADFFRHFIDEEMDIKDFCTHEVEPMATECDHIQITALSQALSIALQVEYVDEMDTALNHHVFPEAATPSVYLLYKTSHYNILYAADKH
Method: as §1

[5] = target: T4, NUDT7 (Homo sapiens, UniProt P0C024); set-up: Intact protein LC/MS covalent labelling, fragments in pools of five, 200 uM each, 4 °C; details: 24 h, 4 °C, pool of five; 200 µM; covalent
T4 construct: residues 14-235, E. coli, pNIC28-Bsa4, N-terminal His6 tag removed by TEV, construct 26672 Da
Method: as §1

[6] = in vitro; set-up: species or system HB2, HEK293; details: human, ccd841 cells
[7] = in vitro; set-up: species or system CCD841, HEK293; details: human, hb2 cells, read-out: HB-2 Cells Viability (%)

T2 sequence (Q92831 whole entry, the tested form may be a part): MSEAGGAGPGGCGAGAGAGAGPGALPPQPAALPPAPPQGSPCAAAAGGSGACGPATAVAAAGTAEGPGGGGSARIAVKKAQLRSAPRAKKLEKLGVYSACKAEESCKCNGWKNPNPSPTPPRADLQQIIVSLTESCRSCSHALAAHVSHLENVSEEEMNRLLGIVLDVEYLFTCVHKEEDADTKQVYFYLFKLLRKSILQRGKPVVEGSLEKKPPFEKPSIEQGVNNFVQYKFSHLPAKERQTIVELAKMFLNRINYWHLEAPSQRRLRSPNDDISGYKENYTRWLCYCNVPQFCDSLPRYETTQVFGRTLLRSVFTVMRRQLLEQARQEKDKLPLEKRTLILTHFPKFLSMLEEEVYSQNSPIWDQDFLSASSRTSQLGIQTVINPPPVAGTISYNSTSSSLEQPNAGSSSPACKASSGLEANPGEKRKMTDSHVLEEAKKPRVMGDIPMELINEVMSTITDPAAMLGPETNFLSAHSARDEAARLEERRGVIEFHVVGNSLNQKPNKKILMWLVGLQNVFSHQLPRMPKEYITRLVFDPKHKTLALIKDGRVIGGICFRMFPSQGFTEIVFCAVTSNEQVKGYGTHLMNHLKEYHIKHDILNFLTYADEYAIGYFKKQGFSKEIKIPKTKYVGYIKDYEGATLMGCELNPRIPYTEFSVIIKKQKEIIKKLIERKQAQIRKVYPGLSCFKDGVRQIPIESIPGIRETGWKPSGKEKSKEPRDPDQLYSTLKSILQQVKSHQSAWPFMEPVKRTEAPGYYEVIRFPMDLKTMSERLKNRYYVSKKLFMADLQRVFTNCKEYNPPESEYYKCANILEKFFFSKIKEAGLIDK
T4 sequence (P0C024 14-235): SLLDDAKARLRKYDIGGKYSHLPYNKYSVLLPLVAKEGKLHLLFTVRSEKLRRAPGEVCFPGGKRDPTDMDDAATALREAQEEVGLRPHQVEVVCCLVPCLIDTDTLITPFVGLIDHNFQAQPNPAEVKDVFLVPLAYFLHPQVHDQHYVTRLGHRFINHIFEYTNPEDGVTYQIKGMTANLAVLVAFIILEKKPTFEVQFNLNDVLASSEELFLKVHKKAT
T1 sequence (P02769 whole entry, the tested form may be a part): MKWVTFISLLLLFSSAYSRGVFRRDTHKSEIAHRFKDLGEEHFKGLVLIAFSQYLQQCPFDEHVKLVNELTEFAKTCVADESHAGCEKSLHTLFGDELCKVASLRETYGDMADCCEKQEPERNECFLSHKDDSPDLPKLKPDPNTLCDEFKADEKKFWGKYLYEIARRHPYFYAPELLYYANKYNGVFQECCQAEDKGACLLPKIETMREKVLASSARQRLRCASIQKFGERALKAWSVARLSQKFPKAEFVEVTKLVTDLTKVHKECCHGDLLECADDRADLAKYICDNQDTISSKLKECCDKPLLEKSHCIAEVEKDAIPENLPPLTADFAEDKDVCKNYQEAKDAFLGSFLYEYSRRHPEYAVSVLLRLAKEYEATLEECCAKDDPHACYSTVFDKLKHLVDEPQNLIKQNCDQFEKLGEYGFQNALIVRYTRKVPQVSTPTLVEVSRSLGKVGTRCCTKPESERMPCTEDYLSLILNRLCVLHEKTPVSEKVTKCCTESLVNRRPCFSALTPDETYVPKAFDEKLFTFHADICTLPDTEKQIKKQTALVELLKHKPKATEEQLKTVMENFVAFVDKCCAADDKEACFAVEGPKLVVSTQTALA

COC(=O)CNC(=O)CCl [PCM-0102906]
viability at 48 h, 10 µM [1]: 112%
BSA [2]: 0
PCAF [3]: 0
OTUB2 [4]: 0.06
NUDT7 [5]: 0
viability at 48 h, 10 µM [6]: 86.7%
viability at 48 h, 10 µM [7]: 87.7%

O=C(CCl)Nc1ccc(F)cc1Cl [PCM-0103040]
viability at 48 h, 10 µM [1]: 60.3%
BSA [2]: 0
PCAF [3]: 0
OTUB2 [4]: 0
NUDT7 [5]: 0
viability at 48 h, 10 µM [6]: 68.7%
viability at 48 h, 10 µM [7]: 76.9%

O=C(CCl)Nc1cccc(I)c1 [PCM-0102154]
viability at 48 h, 10 µM [1]: 1.7%
BSA [2]: 0
PCAF [3]: 0
OTUB2 [4]: 0.49
NUDT7 [5]: 0.24
viability at 48 h, 10 µM [6]: 49%
viability at 48 h, 10 µM [7]: 12.7%

CC(NC(=O)CCl)C1CC1 (stereo not shown) [PCM-0102157]
viability at 48 h, 10 µM [1]: 111%
BSA [2]: 0
PCAF [3]: 0
OTUB2 [4]: 0.1
NUDT7 [5]: 0
viability at 48 h, 10 µM [6]: 103%
viability at 48 h, 10 µM [7]: 87.6%

O=C(CCl)Nc1ccc(F)c(F)c1 [PCM-0102328]
viability at 48 h, 10 µM [1]: 1.4%
BSA [2]: 0.24
PCAF [3]: 0
OTUB2 [4]: 0.31
NUDT7 [5]: 0
viability at 48 h, 10 µM [6]: 30.4%
viability at 48 h, 10 µM [7]: 14.3%

O=C(CCl)NCC1Cc2ccccc2O1 (stereo not shown) [PCM-0103020]
viability at 48 h, 10 µM [1]: 87.1%
BSA [2]: 0
PCAF [3]: 0
OTUB2 [4]: 0
NUDT7 [5]: 0
viability at 48 h, 10 µM [6]: 88.9%
viability at 48 h, 10 µM [7]: 99.1%

C=CC(=O)NC1CCC2(CC1)OCCO2 [PCM-0102564]
viability at 48 h, 10 µM [1]: 75.1%
BSA [2]: 0
PCAF [3]: 0
OTUB2 [4]: 0
NUDT7 [5]: 0
viability at 48 h, 10 µM [6]: 132%
viability at 48 h, 10 µM [7]: 109%

O=C(CCl)NNC(=O)c1ccccc1F [PCM-0102510]
viability at 48 h, 10 µM [1]: 93.1%
BSA [2]: 0
PCAF [3]: 0
OTUB2 [4]: 0.52
NUDT7 [5]: 0
viability at 48 h, 10 µM [6]: 72.7%
viability at 48 h, 10 µM [7]: 98%

Cc1ccc(CN(C)C(=O)CCl)o1 [PCM-0102399]
viability at 48 h, 10 µM [1]: 31.8%
BSA [2]: 0
PCAF [3]: 0
OTUB2 [4]: 0
NUDT7 [5]: 0.05
viability at 48 h, 10 µM [6]: 56.5%
viability at 48 h, 10 µM [7]: 25.7%

C=CC(=O)NCc1cc2sccc2s1 [PCM-0102986]
viability at 48 h, 10 µM [1]: 78.6%
BSA [2]: 0
PCAF [3]: 0
OTUB2 [4]: 0.08
NUDT7 [5]: 0
viability at 48 h, 10 µM [6]: 111%
viability at 48 h, 10 µM [7]: 98.7%

Cl.O=C(CCl)N1CCN(CC(=O)N2CCOCC2)CC1 [PCM-0102133]
viability at 48 h, 10 µM [1]: 92.7%
BSA [2]: 0
PCAF [3]: 0
OTUB2 [4]: 0.15
NUDT7 [5]: 0
viability at 48 h, 10 µM [6]: 94.8%
viability at 48 h, 10 µM [7]: 96.6%

O=C(CCl)Nc1cc(C(F)(F)F)ccc1N1CCOCC1 [PCM-0102741]
viability at 48 h, 10 µM [1]: 118%
BSA [2]: 0
PCAF [3]: 0
OTUB2 [4]: 0.1
NUDT7 [5]: 0
viability at 48 h, 10 µM [6]: 111%
viability at 48 h, 10 µM [7]: 102%

O=C(CCl)N1CCN(S(=O)(=O)c2ccc(F)cc2)CC1 [PCM-0102237]
viability at 48 h, 10 µM [1]: 66.9%
BSA [2]: 0
PCAF [3]: 0
OTUB2 [4]: 0
NUDT7 [5]: 0.06
viability at 48 h, 10 µM [6]: 77%
viability at 48 h, 10 µM [7]: 78.8%

O=C(CCl)Nc1cc(Cl)ccc1-n1cncn1 [PCM-0102258]
viability at 48 h, 10 µM [1]: 11.7%
BSA [2]: 0
PCAF [3]: 0
OTUB2 [4]: 0
NUDT7 [5]: 0.21
viability at 48 h, 10 µM [6]: 51.7%
viability at 48 h, 10 µM [7]: 53.8%

CN(CC1COc2ccccc2O1)C(=O)CCl (stereo not shown) [PCM-0102756]
viability at 48 h, 10 µM [1]: 21.7%
BSA [2]: 0
PCAF [3]: 0
OTUB2 [4]: 0.06
NUDT7 [5]: 0.16
viability at 48 h, 10 µM [6]: 52.5%
viability at 48 h, 10 µM [7]: 13.3%

CN(Cc1ccco1)C(=O)CCl [PCM-0102672]
viability at 48 h, 10 µM [1]: 49.1%
BSA [2]: 0
PCAF [3]: 0
OTUB2 [4]: 0
NUDT7 [5]: 0.1
viability at 48 h, 10 µM [6]: 78.1%
viability at 48 h, 10 µM [7]: 51.9%

Cc1cc(NC(=O)CCl)ccc1N1CCCC1 [PCM-0102175]
viability at 48 h, 10 µM [1]: 2.9%
BSA [2]: 0.15
PCAF [3]: 0
OTUB2 [4]: 0.39
NUDT7 [5]: 0.13
viability at 48 h, 10 µM [6]: 45.1%
viability at 48 h, 10 µM [7]: 10.2%

O=C(CCl)Nc1ccc(O)cc1 [PCM-0102163]
viability at 48 h, 10 µM [1]: 38.2%
BSA [2]: 0
PCAF [3]: 0
OTUB2 [4]: 0.16
NUDT7 [5]: 0
viability at 48 h, 10 µM [6]: 60.5%
viability at 48 h, 10 µM [7]: 67.8%

N#Cc1c2c(n(-c3ccccc3)c1NC(=O)CCl)CCCC2 [PCM-0102107]
viability at 48 h, 10 µM [1]: 7.6%
BSA [2]: 0
PCAF [3]: 0
OTUB2 [4]: 0.08
NUDT7 [5]: 0.46
viability at 48 h, 10 µM [6]: 53.9%
viability at 48 h, 10 µM [7]: 18%

O=C(CCl)N1CCC(c2nc3ccccc3o2)CC1 [PCM-0102920]
viability at 48 h, 10 µM [1]: 21.4%
BSA [2]: 0
PCAF [3]: 0
OTUB2 [4]: 0
NUDT7 [5]: 0
viability at 48 h, 10 µM [6]: 70%
viability at 48 h, 10 µM [7]: 40.1%

CC(c1ccc(F)cc1)N(C)C(=O)CCl (stereo not shown) [PCM-0102783]
viability at 48 h, 10 µM [1]: 30.3%
BSA [2]: 0
PCAF [3]: 0
OTUB2 [4]: 0
NUDT7 [5]: 0.19
viability at 48 h, 10 µM [6]: 47.8%
viability at 48 h, 10 µM [7]: 47.3%

O=C(CCl)NCC1CCCc2ccccc21 (stereo not shown) [PCM-0102794]
viability at 48 h, 10 µM [1]: 53.5%
BSA [2]: 0
PCAF [3]: 0
OTUB2 [4]: 0.34
NUDT7 [5]: 0
viability at 48 h, 10 µM [6]: 66.7%
viability at 48 h, 10 µM [7]: 67.3%

CNC(=O)C1CN(C(=O)CCl)c2ccccc2O1 (stereo not shown) [PCM-0102221]
viability at 48 h, 10 µM [1]: 53%
BSA [2]: 0
PCAF [3]: 0
OTUB2 [4]: 0.15
NUDT7 [5]: 0
viability at 48 h, 10 µM [6]: 58.1%
viability at 48 h, 10 µM [7]: 82.1%

O=C(CCl)NCc1nc2ccccc2s1 [PCM-0102803]
viability at 48 h, 10 µM [1]: 43%
BSA [2]: 0
PCAF [3]: 0
OTUB2 [4]: 0.37
NUDT7 [5]: 0
viability at 48 h, 10 µM [6]: 63.8%
viability at 48 h, 10 µM [7]: 55.2%

O=C(CCl)NC(=O)Nc1ccc2c(c1)OCCO2 [PCM-0102614]
viability at 48 h, 10 µM [1]: 80.3%
BSA [2]: 0
PCAF [3]: 0
OTUB2 [4]: 0.27
NUDT7 [5]: 0.23
viability at 48 h, 10 µM [6]: 83.6%
viability at 48 h, 10 µM [7]: 88.7%

C=CC(=O)N1CCC(n2cc(C)cn2)CC1 [PCM-0102423]
viability at 48 h, 10 µM [1]: 92.5%
BSA [2]: 0
PCAF [3]: 0
OTUB2 [4]: 0.09
NUDT7 [5]: 0
viability at 48 h, 10 µM [6]: 108%
viability at 48 h, 10 µM [7]: 104%

C=CC(=O)NC1CCCCC1n1cccn1 (stereo not shown) [PCM-0102440]
viability at 48 h, 10 µM [1]: 98.5%
BSA [2]: 0
PCAF [3]: 0
OTUB2 [4]: 0
NUDT7 [5]: 0.08
viability at 48 h, 10 µM [6]: 100%
viability at 48 h, 10 µM [7]: 91.4%

O=C(CCl)Nc1cc2[nH]c(=O)[nH]c2cc1Br [PCM-0102388]
viability at 48 h, 10 µM [1]: 1.2%
BSA [2]: 0
PCAF [3]: 0
OTUB2 [4]: 0.56
NUDT7 [5]: 0
viability at 48 h, 10 µM [6]: 38.6%
viability at 48 h, 10 µM [7]: 11.4%
